Key:
[1] = molecular target: T1, Prostaglandin E2 receptor EP3 subtype (Homo sapiens, UniProt P43115); test: Displacement of [3H]PGE2 from human recombinant EP3 receptor expressed in HEK293 cell membranes after 120 mins by liquid scintillation counting method
T1 sequence (P43115 whole entry): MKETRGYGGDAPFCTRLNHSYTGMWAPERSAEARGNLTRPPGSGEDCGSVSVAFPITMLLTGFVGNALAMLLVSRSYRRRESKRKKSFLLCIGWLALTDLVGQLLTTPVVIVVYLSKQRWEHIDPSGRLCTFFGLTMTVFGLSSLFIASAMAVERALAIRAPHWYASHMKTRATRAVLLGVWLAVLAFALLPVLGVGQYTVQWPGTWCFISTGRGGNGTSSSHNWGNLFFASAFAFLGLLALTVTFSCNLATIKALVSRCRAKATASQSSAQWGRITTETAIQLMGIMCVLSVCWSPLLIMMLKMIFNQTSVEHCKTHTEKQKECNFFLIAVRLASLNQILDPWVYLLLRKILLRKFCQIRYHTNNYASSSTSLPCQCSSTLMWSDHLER

[2] = molecular target: T2, Prostaglandin E2 receptor EP4 subtype (Homo sapiens, UniProt P35408); test: Displacement of [3H]PGE2 from human recombinant EP4 receptor expressed in HEK293 cell membranes after 120 mins by liquid scintillation counting method
T2 sequence (P35408 whole entry): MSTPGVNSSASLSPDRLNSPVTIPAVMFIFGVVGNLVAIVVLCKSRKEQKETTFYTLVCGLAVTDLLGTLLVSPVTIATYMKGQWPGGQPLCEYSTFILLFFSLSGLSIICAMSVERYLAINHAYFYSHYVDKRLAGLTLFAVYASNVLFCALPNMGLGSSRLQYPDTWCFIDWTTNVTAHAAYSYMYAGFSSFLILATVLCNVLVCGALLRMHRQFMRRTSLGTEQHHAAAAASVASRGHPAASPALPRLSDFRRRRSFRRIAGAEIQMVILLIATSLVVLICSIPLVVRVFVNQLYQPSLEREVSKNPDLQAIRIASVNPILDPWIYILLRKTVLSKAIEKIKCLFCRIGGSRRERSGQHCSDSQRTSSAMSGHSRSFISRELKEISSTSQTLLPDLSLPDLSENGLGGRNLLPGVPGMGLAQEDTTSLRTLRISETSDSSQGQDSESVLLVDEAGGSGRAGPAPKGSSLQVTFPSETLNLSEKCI

[3] = molecular target: T2, Prostaglandin E2 receptor EP4 subtype; test: Agonist activity at human EP4 receptor expressed in HEK293T/17 cells assessed as increase in intracellular cAMP level incubated for 30 mins by ELISA; format: functional, cell-based
[4] = molecular target: T3, Prostaglandin E2 receptor EP2 subtype (Homo sapiens, UniProt P43116); test: Agonist activity at human EP2 receptor expressed in HEK293T/17 cells assessed as increase in intracellular cAMP level incubated for 30 mins by ELISA; format: functional, cell-based
T3 sequence (P43116 whole entry): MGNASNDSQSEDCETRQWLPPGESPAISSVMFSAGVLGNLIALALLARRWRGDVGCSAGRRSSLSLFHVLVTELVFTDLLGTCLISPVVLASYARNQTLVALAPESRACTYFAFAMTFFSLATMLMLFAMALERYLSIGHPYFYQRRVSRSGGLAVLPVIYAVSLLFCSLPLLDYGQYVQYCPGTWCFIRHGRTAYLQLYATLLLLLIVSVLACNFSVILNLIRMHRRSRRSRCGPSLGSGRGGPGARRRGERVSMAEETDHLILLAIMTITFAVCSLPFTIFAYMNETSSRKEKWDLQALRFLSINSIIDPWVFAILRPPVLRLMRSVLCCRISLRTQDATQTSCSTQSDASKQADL

[5] = molecular target: T3, Prostaglandin E2 receptor EP2 subtype; test: Agonist activity at human EP2 receptor expressed in HEK293T/17 cells assessed as increase in GalphaS-mediated CREB activation measured after 6 to 24 hrs by SEAP reporter gene-based chemiluminescence assay; format: functional, cell-based
[6] = Protein binding in human plasma at 10 uM after 4 hrs by HPLC-MS/MS-based equilibrium dialysis method; format: ADME, cell-free; conditions: read-out: PPB (converted)
[7] = Apparent permeability across apical to basolateral side in human Caco2 cells at 5 uM after 120 mins by LC-MS/MS analysis; format: ADME, cell-based; conditions: Caco-2
[8] = Apparent permeability across basolateral to apical side in human Caco2 cells at 5 uM after 120 mins by LC-MS/MS analysis; format: ADME, cell-based; conditions: Caco-2
[9] = Half-life in human plasma at 1 uM by HPLC-MS/MS analysis; format: ADME, cell-free
[10] = Half-life in human blood at 1 uM by HPLC-MS/MS analysis; format: ADME, tissue-based
[11] = Intrinsic clearance in human liver microsomes at 0.1 uM by HPLC-MS/MS analysis; format: ADME, Microsome; conditions: read-out: CLH
Cytochrome P450 2B6 = molecular target: T4, Cytochrome P450 2B6 (Homo sapiens, UniProt P20813); test: Inhibition of CYP2B6 in human liver microsomes using bupropion as substrate at 10 uM after 10 mins by HPLC-MS/MS analysis; format: ADME
T4 sequence (P20813 whole entry): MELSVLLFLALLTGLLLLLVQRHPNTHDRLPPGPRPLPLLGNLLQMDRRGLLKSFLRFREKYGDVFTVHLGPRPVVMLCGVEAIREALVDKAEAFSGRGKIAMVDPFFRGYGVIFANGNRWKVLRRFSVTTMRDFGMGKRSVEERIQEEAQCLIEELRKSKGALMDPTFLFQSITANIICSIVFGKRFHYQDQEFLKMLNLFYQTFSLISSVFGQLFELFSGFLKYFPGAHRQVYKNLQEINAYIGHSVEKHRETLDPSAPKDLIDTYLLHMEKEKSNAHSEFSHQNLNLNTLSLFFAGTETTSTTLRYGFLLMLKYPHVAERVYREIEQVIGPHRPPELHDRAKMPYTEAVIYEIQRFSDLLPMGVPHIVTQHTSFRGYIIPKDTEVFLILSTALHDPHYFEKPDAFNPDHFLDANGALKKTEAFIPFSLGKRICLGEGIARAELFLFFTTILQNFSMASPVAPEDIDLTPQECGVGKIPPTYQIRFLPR

Cytochrome P450 2C9 = Cytochrome P450 2C9 (Homo sapiens, UniProt P11712); test: Inhibition of CYP2C9 in human liver microsomes using diclofenac as substrate at uM after 10 mins by HPLC-MS/MS analysis; format: ADME
Sequence of Cytochrome P450 2C9 (P11712 whole entry): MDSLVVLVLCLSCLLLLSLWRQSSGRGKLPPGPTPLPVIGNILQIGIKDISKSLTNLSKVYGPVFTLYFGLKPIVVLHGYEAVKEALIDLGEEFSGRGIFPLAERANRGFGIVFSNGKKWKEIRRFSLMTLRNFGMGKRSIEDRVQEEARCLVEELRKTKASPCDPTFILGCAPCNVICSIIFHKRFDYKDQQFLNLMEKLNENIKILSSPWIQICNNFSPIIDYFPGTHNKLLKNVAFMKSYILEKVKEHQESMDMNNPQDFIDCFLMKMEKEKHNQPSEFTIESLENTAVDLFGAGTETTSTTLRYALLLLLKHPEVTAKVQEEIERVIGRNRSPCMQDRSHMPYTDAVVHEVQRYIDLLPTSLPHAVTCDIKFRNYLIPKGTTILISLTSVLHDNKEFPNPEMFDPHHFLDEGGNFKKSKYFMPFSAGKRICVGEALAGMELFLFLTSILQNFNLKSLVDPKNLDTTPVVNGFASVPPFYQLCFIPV

[12] = Genotoxicity in Salmonella typhimurium TA1535 at 0.6 to 100 uM after 96 hrs by photometry analysis; format: toxicity; conditions: salmonella enterica subsp. enterica serovar typhimurium
[13] = Genotoxicity in Salmonella typhimurium TA1537 at 0.6 to 100 uM after 96 hrs by photometry analysis; format: toxicity; conditions: salmonella enterica subsp. enterica serovar typhimurium
[14] = Mutagenicity in Salmonella typhimurium TA98 after 96 hrs in presence of rat liver S9 fraction by Ames test; format: toxicity, subcellular; conditions: salmonella enterica subsp. enterica serovar typhimurium, s9, 96 h
[15] = Mutagenicity in Salmonella typhimurium TA100 after 96 hrs in presence of rat liver S9 fraction by Ames test; format: toxicity, subcellular; conditions: salmonella enterica subsp. enterica serovar typhimurium, s9, 96 h
[16] = Mutagenicity in Salmonella typhimurium TA1535 after 96 hrs in presence of rat liver S9 fraction by Ames test; format: toxicity, subcellular; conditions: salmonella enterica subsp. enterica serovar typhimurium, s9, 96 h
[17] = Mutagenicity in Salmonella typhimurium TA1537 after 96 hrs in presence of rat liver S9 fraction by Ames test; format: toxicity, subcellular; conditions: salmonella enterica subsp. enterica serovar typhimurium, s9, 96 h
[18] = molecular target: Voltage-gated inwardly rectifying potassium channel KCNH2 (Homo sapiens, UniProt Q12809); test: Inhibition of human ERG expressed in CHOK1 cells assessed as reduction in tail current amplitude by automated patch-clamp method; format: cell-based
Sequence of Voltage-gated inwardly rectifying potassium channel KCNH2 (Q12809 whole entry): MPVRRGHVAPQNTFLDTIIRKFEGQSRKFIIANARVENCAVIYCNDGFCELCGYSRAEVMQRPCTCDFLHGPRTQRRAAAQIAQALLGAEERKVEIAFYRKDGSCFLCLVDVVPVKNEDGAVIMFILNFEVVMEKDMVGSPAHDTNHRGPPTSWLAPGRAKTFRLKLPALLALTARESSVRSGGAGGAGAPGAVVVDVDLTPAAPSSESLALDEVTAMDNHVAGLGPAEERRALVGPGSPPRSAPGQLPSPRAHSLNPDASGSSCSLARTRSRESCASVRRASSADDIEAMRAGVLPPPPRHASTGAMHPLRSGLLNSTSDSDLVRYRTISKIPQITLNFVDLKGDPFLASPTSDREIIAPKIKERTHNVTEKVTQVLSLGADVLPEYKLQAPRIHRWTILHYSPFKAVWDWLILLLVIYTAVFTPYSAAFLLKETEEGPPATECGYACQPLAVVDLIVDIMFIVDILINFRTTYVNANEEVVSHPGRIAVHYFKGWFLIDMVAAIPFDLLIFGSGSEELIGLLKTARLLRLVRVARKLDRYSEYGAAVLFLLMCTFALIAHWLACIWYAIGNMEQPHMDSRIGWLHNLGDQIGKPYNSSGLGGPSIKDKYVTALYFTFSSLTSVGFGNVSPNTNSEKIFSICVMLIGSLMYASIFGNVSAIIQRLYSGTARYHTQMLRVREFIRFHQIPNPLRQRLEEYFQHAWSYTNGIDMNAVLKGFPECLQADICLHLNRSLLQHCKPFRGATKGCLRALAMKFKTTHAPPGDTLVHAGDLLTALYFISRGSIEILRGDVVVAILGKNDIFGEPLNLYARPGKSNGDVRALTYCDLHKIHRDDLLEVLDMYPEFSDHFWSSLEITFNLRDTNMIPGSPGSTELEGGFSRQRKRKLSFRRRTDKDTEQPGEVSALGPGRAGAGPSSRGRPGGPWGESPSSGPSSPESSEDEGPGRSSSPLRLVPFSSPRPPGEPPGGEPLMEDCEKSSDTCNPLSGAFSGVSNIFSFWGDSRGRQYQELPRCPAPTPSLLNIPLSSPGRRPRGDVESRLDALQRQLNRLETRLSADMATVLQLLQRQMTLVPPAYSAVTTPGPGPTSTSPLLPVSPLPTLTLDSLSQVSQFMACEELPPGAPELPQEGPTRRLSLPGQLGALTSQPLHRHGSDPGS

[19] = molecular target: T3, Prostaglandin E2 receptor EP2 subtype; test: Agonist activity at human EP2 receptor expressed in HEK293T/17 cells assessed as increase in intracellular cAMP level at 10 uM incubated for 30 mins by ELISA relative to control; format: functional, cell-based
[20] = Mutagenicity in Salmonella typhimurium TA100 after 96 hrs in absence of rat liver S9 fraction by Ames test; format: toxicity; conditions: salmonella enterica subsp. enterica serovar typhimurium, s9, 96 h
[21] = Mutagenicity in Salmonella typhimurium TA1535 after 96 hrs in absence of rat liver S9 fraction by Ames test; format: toxicity; conditions: salmonella enterica subsp. enterica serovar typhimurium, s9, 96 h
[22] = Mutagenicity in Salmonella typhimurium TA1537 after 96 hrs in absence of rat liver S9 fraction by Ames test; format: toxicity; conditions: salmonella enterica subsp. enterica serovar typhimurium, s9, 96 h

Question: What does the source list for `CCC#CC[C@H](C)[C@H](O)/C=C/[C@H]1CC(F)(F)C(=O)N1CCCCCCC(=O)O`?
Answer: Ki [1]: 258 nM; Ki [2]: 0.378 nM; EC50 [3]: 2.63 nM; EC50 [4]: > 10000 nM; EC50 [5]: 7360 nM; fraction unbound at 4 h, 10 µM [6]: 0.416; Papp A→B at 2 h, 5 µM [7]: 9.93 ×10⁻⁶ cm/s; Papp B→A at 2 h, 5 µM [8]: 14.5 ×10⁻⁶ cm/s; half-life at 1 µM [9]: > 2 h; half-life at 1 µM [10]: > 2 h; microsomal CLint at 0.1 µM [11]: < 116 µL/min/mg; inhibition (INH) (Cytochrome P450 2B6): Not Active; inhibition (INH) (Cytochrome P450 2C9): Not Active; Activity [12]: Non-Toxic; Activity [13]: Non-Toxic; Activity [14]: Non-Toxic; Activity [15]: Non-Toxic; Activity [16]: Non-Toxic; Activity [17]: Non-Toxic; IC50 [18]: 25900 nM; Activity [19]: < 50%; Activity [20]: Non-Toxic; Activity [21]: Non-Toxic; Activity [22]: Non-Toxic

Question: For `CCC#CC[C@H](C)[C@H](O)/C=C/[C@H]1CCC(=O)N1CCCCCCC(=O)O`, which Ki [1] is on record?
Answer: The Ki was 880 nM.

Question: And the Ki [2]?
Answer: The Ki was 2.35 nM.

Question: And the EC50 [3]?
Answer: The EC50 was 19.9 nM.

Question: What about the EC50 [4] of the same molecule?
Answer: Its EC50 is over 10000 nM.

Question: And the EC50 [5]?
Answer: Its EC50 is over 10000 nM.

Question: And the fraction unbound at 4 h, 10 µM [6]?
Answer: Its fraction unbound at 4 h, 10 µM is 0.558.

Question: And the Papp A→B at 2 h, 5 µM [7]?
Answer: The Papp A→B at 2 h, 5 µM was 6.38 ×10⁻⁶ cm/s.

Question: And the Papp B→A at 2 h, 5 µM [8]?
Answer: The Papp B→A at 2 h, 5 µM was 10.1 ×10⁻⁶ cm/s.

Question: And the half-life at 1 µM [9]?
Answer: The half-life at 1 µM was 1.93 h.

Question: What about the half-life at 1 µM [10] of the same molecule?
Answer: Its half-life at 1 µM is over 2 h.

Question: And the microsomal CLint at 0.1 µM [11]?
Answer: The microsomal CLint at 0.1 µM was under 116 µL/min/mg.

Question: What about the “inhibition (INH)” value (Cytochrome P450 2B6) of the same molecule?
Answer: The value was “Not Active”.

Question: What about the “inhibition (INH)” value (Cytochrome P450 2C9) of the same molecule?
Answer: The value was “Not Active”.

Question: What about the Activity [12] of the same molecule?
Answer: Its Activity is “Non-Toxic”.

Question: What about the Activity [13] of the same molecule?
Answer: The Activity was “Non-Toxic”.

Question: What about the Activity [14] of the same molecule?
Answer: The Activity was “Non-Toxic”.

Question: What about the Activity [15] of the same molecule?
Answer: Its Activity is “Non-Toxic”.

Question: And the Activity [16]?
Answer: Its Activity is “Non-Toxic”.

Question: And the Activity [17]?
Answer: Its Activity is “Non-Toxic”.

Question: And the IC50 [18]?
Answer: The IC50 was 29000 nM.

Question: What about the Activity [19] of the same molecule?
Answer: The Activity was under 50%.

Question: What about the Activity [20] of the same molecule?
Answer: The Activity was “Non-Toxic”.

Question: And the Activity [21]?
Answer: Its Activity is “Non-Toxic”.

Question: And the Activity [22]?
Answer: The Activity was “Non-Toxic”.

Reference: ChEMBL document CHEMBL4385611, “Difluoromethylene at the γ-Lactam α-Position Improves 11-Deoxy-8-aza-PGE1 Series EP4 Receptor Binding and Activity: 11-Deoxy-10,10-difluoro-8-aza-PGE1 Analog (KMN-159) as a Potent EP4 Agonist” (J Med Chem, 2019)
